Experiment [1] deals with milk-derived extracellular vesicles. In words: Gel filtration comparison with compound of Patent Literature 1 (Example 17 / Comparative example 4). The following applies: reaction time 3 hours at room temperature. An excerpt:
The present applicant has disclosed GIF-2250 illustrated below in Patent Literature 1. GIF-2250 differs from the compounds of the present application in that the portion indicated by “→” is NH. First, the effect of this difference in structure provided on size separation using gel filtration was observed. Note that the synthesis procedure of GIF-2250 is disclosed in Patent Literature 1. The features disclosed in Patent Literature 1 are incorporated in the present specification by reference in its entirety.
Experiments were performed in the same procedure as in Example 10 except that GIF-2276 and GIF-2250 (Comparative example 4), which is disclosed in Patent Literature 1, were used and the reaction time was 3 hours at room temperature. FIG. 8 illustrates a graph in which respective experimental results are overlapped.
For orientation: In gel filtration, larger molecules generally elute earlier.

Experiment [2] has the same test system. The experiment is described as follows: Staining of milk-derived extracellular vesicles with heat treatment, gel filtration analysis (Example 11 / Comparative example 2). The following applies: untreated vs 80° C. for 5 minutes or 15 minutes. The method, then: Experiments were performed in the same procedure as in Example 10 except that, after the staining agent was added to the extracellular vesicle preparation liquid in Example 10, the mixture was immediately analyzed with a column (untreated), the mixture was analyzed after treated at 80° C. for 5 minutes, or the mixture was analyzed after treated at 80° C. for 15 minutes. Note that the compounds used in the experiments of Example 11 are labeled with the GIF numbers in the graphs.
Experiments were performed in the same procedure as in Comparative example 1 except that, after the staining agent was added to the extracellular vesicle preparation liquid in Comparative example 1, the mixture was immediately analyzed with a column (untreated), the mixture was analyzed after treated at 80° C. for 5 minutes, or the mixture was analyzed after treated at 80° C. for 15 minutes.

The test system is the same in experiment [3]. In words: Staining of milk-derived extracellular vesicles, analysis by high-performance liquid chromatography gel filtration system (Example 10 / Comparative example 1). The following applies: staining agent 1 μM, room temperature 12 hours. The protocol: Commercially available pasteurized milk (by Seki milk or Takanashi) of 1 L was centrifuged at 8000 rpm for 30 minutes, and the supernatant was filtrated by a coffee filter. Subsequently, acetic acid was added thereto to be 1%, and the mixture was further centrifuged at 8000 rpm for 30 minutes. The supernatant thereof was further filtrated by a coffee filter. The liquid obtained after the filtration was filtrated by a filter of 0.45 μm (by Sartorius), and the filtrate was filtrated by a filter of 0.1 μm (by Sartorius). Since extracellular vesicles remain on the filter of 0.1 μm, the extracellular vesicles were washed with 5 mL of phosphate buffer solution three times. Eventually, extracellular vesicles were collected with 1 mL of phosphate buffer solution. Further, 10 μL of the purified extracellular vesicle liquid was diluted with 40 μL of phosphate buffer solution (hereafter, referred to as “extracellular vesicle preparation liquid”)
Compounds 1 to 9 synthesized in Examples 1 to 9 were diluted with DMSO to produce a staining agent used in Example 10.
ExoSparkler Exosome Membrane Labeling Kit-Red (ExoSP Model No. EX02, by Dojin) was diluted with a DMSO solution in accordance with the instructions for use to produce a staining agent of Comparative example 1.
The staining agent produced in Example 10 was added to an extracellular vesicle preparation liquid so that the final concentration of the staining agent became 1 μM. Further, 1 μL of the staining agent produced in Comparative example 1 was added to an extracellular vesicle preparation liquid. In Example 10 and Comparative example 1, the staining agent was added to the extracellular vesicle preparation liquid and then allowed to stand at room temperature for 12 hours. After 12 hours elapsed, 10 μL of the reaction product was analyzed by a high-performance liquid chromatography gel filtration system. […] Detection was performed on ExoSP at 560 nm for excitation and 600 nm for fluorescence detection and was performed on the compounds synthesized in Examples 1 to 8 at 480 nm for excitation and 530 nm for fluorescence detection. […]

Experiment [4] has as its system HEK293 cells. The experiment is described as follows: Tracking of labeled milk-derived extracellular vesicles introduced into cells (Example 15). The class given is cell-based. The method, then: (§1) The milk-derived extracellular vesicles (exosomes) prepared in the procedure of Example 10 were stained with GIF-2276 at room temperature for 12 hours to label the extracellular vesicles. Unreacted GIF-2276 was removed by Microcon 300K (by Millipore). Lysosomes in HEK293 cells (ThermoFisher) were labeled with LysoBrite Red, and GIF-2276-labeled milk-derived extracellular vesicles were added thereto. After 3 hours, the mixture was observed by a microscope. FIG. 6 illustrates the result. The upper left “2276” in FIG. 6 is a fluorescent photograph of the extracellular vesicles labeled with GIF-2276. The upper right “LysoBright” in FIG. 6 is a fluorescent photograph of the lysosomes labeled with LysoBrite Red. The lower left in FIG. 6 is a photograph obtained by merging the fluorescent photograph of the extracellular vesicles labeled with GIF-2276 and the fluorescent photograph of the lysosomes labeled with LysoBrite Red. The lower right in FIG. 6 is a photograph of HEK293 cells captured in visible light.

Experiment [5] concerns HEK293 cells. The experiment is described as follows: Tracking of labeled lactic acid bacteria (Yakult)-derived extracellular vesicles introduced into cells (Example 16). Type of experiment: cell-based. The method, then:
as §1
Experiments were performed in the same procedure as in Example 15 except that, instead of milk-derived extracellular vesicles, lactic acid bacteria (Yakult)-derived extracellular vesicles were used. FIG. 7 illustrates the result.

Experiment [6] has as its system extracellular vesicles of pasteurized milk. In words: Correlation between gel filtration and plate reader detection of extracellular vesicles (Example 17 (2)). The method, then: Patent Literature 1 discloses that the use of GIF-2250 enables quantification of extracellular vesicles by a plate reader. The correlation between detection of extracellular vesicles by a plate reader with the use of GIF-2250 and detection of extracellular vesicles by gel filtration with the use of GIF-2276 synthesized in Example 1 was examined.
Pasteurized milk (Takanashi) was heated at 60, 70, and 80° C. for 30 minutes and cooled back to room temperature. The extracellular vesicles were then prepared by the procedure described in Example 10, and the pasteurized milk was added thereto so that the final concentration of GIF-2276 synthesized in Example 1 became 1 μM to label the extracellular vesicles. The mixture was analyzed by a high-performance liquid chromatography gel filtration system to find the area of the peak. Extracellular vesicles prepared in the same manner reacted with 3 μM of GIF-2250 to find the fluorescence quantity by using a fluorescent plate reader. Respective values were plotted to find a correlation.

In experiment [7] the test system is lactic acid bacteria (Yakult)-derived extracellular vesicles. The experiment is described as follows: Staining of lactic acid bacteria (Yakult)-derived extracellular vesicles, gel filtration analysis (Example 14 / Comparative example 3). The following applies: staining agent 1 μM, room temperature 12 hours. The protocol:
The staining agent produced in Example 10 was added to an extracellular vesicle preparation liquid so that the final concentration of the staining agent became 1 μM. Further, 1 μL of the staining agent produced in Comparative example 1 was added to an extracellular vesicle preparation liquid. In Example 10 and Comparative example 1, the staining agent was added to the extracellular vesicle preparation liquid and then allowed to stand at room temperature for 12 hours. After 12 hours elapsed, 10 μL of the reaction product was analyzed by a high-performance liquid chromatography gel filtration system. As the eluent for the column, 10 mM of Tris (pH 6.8), 0.25 mM of EDTA, and 50 mM of NaCl were used. Detection was performed on ExoSP at 560 nm for excitation and 600 nm for fluorescence detection and was performed on the compounds synthesized in Examples 1 to 8 at 480 nm for excitation and 530 nm for fluorescence detection. A column having 3 cm of Gen 2 qEV original/70 nm (by iZQN) and Shodex OHpak SB-807 (by Showa denko) connected to each other was used.
Next, experiments using various lactic fermenting beverages were performed. As the lactic fermenting beverage, A: Yakult (by Yakult), B: Onakayorokobu lactic acid bacteria (by Kurashimoa), and C: Pirkle (by Nissin Foods) were used. Each 500 mL of the lactic fermenting beverages of A to C listed above was centrifuged at 8000 rpm for 30 minutes, and the supernatant was filtrated by a coffee filter. The liquid obtained after the filtration was filtrated by a filter of 0.45 μm (by Sartorius), and the filtrate was filtrated by a filter of 0.033 μm (by GVS). Since extracellular vesicles remain on the filter of 0.033 μm, the extracellular vesicles were washed with 5 mL of phosphate buffer solution three times. Eventually, extracellular vesicles were collected with 1 mL of phosphate buffer solution. […]

The values below come from patent publication US20260079084A1, “COMPOUND, EXTRACELLULAR VESICLE STAINING AGENT, AND FLUORESCENT STAINING METHOD FOR EXTRACELLULAR VESICLES” (National University Corporation Tokai National Higher …, priority 2022, published 2026).

As for `CN(C)c1ccc(CCCN(C)C2CCc3cc(OCCNc4ccc([N+](=O)[O-])c5nonc45)ccc32)cc1` (stereo not shown) [GIF-2250, reference compound], the “peak of milk-derived extracellular vesicles in gel filtration” value in experiment [1] is on record as “no peak of milk-derived extracellular vesicles was found”.

Take `CN(C)c1ccc(CN(C)C2CCc3cc(OCCn4cc(CCOc5ccc([N+](=O)[O-])c6nonc56)nn4)ccc32)cc1` (stereo not shown) [GIF-2274]: the “effect of heat treatment on fluorescence intensity” value (from here on “effect of heat treatment”) in experiment [2] is “significant increase in the fluorescence intensity due to heat treatment”.

For the compound `CN(C)c1ccc(CCCN(C)C2CCc3cc(OCCOc4ccc([N+](=O)[O-])c5nonc45)ccc32)cc1` (stereo not shown) [GIF-2276], in experiment [3], the “sensitivity order in staining of pasteurized milk extracellular vesicles” value is “highest in the order of GIF-2281, GIF-2280, and GIF-2276”. Also, in experiment [2], the “effect of heat treatment” value was “significant increase in the fluorescence intensity due to heat treatment”. Further, the “tracking of labeled extracellular vesicles in cells” value in experiment [4] (HEK293 cells, after 3 hours) is recorded as “can be tracked in the cells to which the same was introduced”; in experiment [5], “can be tracked in the cells to which the same was introduced”. The “localization of signals of labeled extracellular vesicles in cells” value in experiment [4] (lysosomes labeled with LysoBrite Red, microscope after 3 hours) is on record as “most of signals from extracellular vesicles are localized in the lysosomes”. Further, the “peak of milk-derived extracellular vesicles in gel filtration” value in experiment [1] is “a clear peak due to the size of milk-derived extracellular vesicles was found”. Also, in experiment [6] (depiction omitted), the “quantification of extracellular vesicles by plate reader” value is recorded as “successfully quantified”. Besides, the “correlation of gel filtration peak area (GIF-2276) with plate reader fluorescence intensity (GIF-2250)” value in experiment [6] (milk heated at 60, 70, 80° C. for 30 minutes, GIF-2276 1 μM, GIF-2250 3 μM) is recorded as “high correlation”.

As for `CN(C)c1ccc(CCCN(C)C2CCc3cc(OCCOCCOc4ccc([N+](=O)[O-])c5nonc45)ccc32)cc1` (stereo not shown) [GIF-2277], the “effect of heat treatment” value in experiment [2] was “significant increase in the fluorescence intensity due to heat treatment”. Also, the “sensitivity order in staining of lactic acid bacteria extracellular vesicles” value in experiment [7] was “highest in the order of GIF-2277, GIF-2281, and GIF-2282”.

Regarding `CN(C)c1ccc(CCCN(C)C2CCc3cc(OCCCCCCOc4ccc([N+](=O)[O-])c5nonc45)ccc32)cc1` (stereo not shown) [GIF-2280], in experiment [3], the “sensitivity order in staining of pasteurized milk extracellular vesicles” value was “highest in the order of GIF-2281, GIF-2280, and GIF-2276”.

As to `CN(CCCc1ccc(N(C)C)cc1)Cc1ccc(OCCOc2ccc([N+](=O)[O-])c3nonc23)cc1` [GIF-2281], in experiment [3], the “sensitivity order in staining of pasteurized milk extracellular vesicles” value is “highest in the order of GIF-2281, GIF-2280, and GIF-2276”. Moreover, the “sensitivity order in staining of lactic acid bacteria extracellular vesicles” value in experiment [7] was “highest in the order of GIF-2277, GIF-2281, and GIF-2282”.

For `CN(C)c1ccc(CCCN(C)C2CCc3cc(OCCOCCOCCOCCOc4ccc([N+](=O)[O-])c5nonc45)ccc32)cc1` (stereo not shown) [GIF-2282], the “sensitivity order in staining of lactic acid bacteria extracellular vesicles” value in experiment [7] is “highest in the order of GIF-2277, GIF-2281, and GIF-2282”.
